Blank lines part the entries; values can stand above or below the molecule they belong to.
Assays:
[1] = tested on: Flag-tagged human Atg12 (wild type)
Bax = test: Immunoprecipitation of conformationally active Bax (6A7 antibody) from HeLa cells; type: cell-based, human; settings: HeLa cells treated with STS; conformation-specific antibody 6A7 (FIG. 11C)
Description: Conformationally active Bax was immunoprecipitated with anti-Bax antibody (6A7, Abcam). Cell pellets from STS-treated HeLa cells (3 μM, 4 h; Sigma Aldrich) were resuspended in 1% CHAPS (3-[(3-cholamidopropyl)-dimethylammonio]-1-propanesulfonate) buffer supplemented with protease and phosphatase inhibitors. Pre-cleared cell lysates were incubated with 2 μg antibody overnight at 4° C., followed by incubation with protein G agarose beads. Beads were washed with lysis buffer and boiled in sample buffer. Western blot detection of total Bax was performed with anti-Bax N20 antibody (Santa Cruz Biotechnology).
Next, it was assessed whether the depletion of Atg12 affected early events in the apoptotic cascade that are regulated by anti-apoptotic Bcl-2 proteins. […] Importantly, Bax activation was restored upon enforced expression of an siRNA-resistant construct of Atg12 (FIG. 11D).

Atg12-Bcl-2 interaction [2] = test: Co-immunoprecipitation of Flag-tagged Atg12 and endogenous Bcl-2 in STS-treated HeLa cells; type: cell-based, human; settings: STS 3 μM, 4 h (FIG. 5E)
Source text: (A) Sequence alignment of the BH3-like region of Atg12 with BH3 domains of the Bcl-2 family using ClustalW. The four conserved BH3 hydrophobic residues are colored in grey, and the conserved “GD” residues in black. Arrow indicates critical Asp64 residue in hAtg12. Species abbreviations: Hs, Homo sapiens; Sc, Saccharomyces cerevisiae; Dm, Drosophila melanogaster. (B) Co-immunoprecipitation of Flag-tagged hAtg12 and Bcl-2 or Mcl-1 from HEK293 cells co-transfected as indicated. (C) Co-immunoprecipitation of Flag-tagged hAtg12 with endogenous Bcl-2 and Mcl-1 from HEK293 cells. (D) Co-immunoprecipitation of endogenous Atg12 and endogenous Mcl-1 in HEK293 and HeLa cells. (E) Co-immunoprecipitation of Flag-tagged Atg12 and endogenous Bcl-2 in HeLa cells treated with STS (3 μM; 4 h). (F) Co-immunoprecipitation of Flag-tagged Atg12 and endogenous Bcl-2 in HEK293 cells co-expressing a control plasmid (CAT) or HA-tagged BAD. (G) Flag-Atg12 was immunoprecipitated from HEK293 cells and incubated with either 10 μM ABT-737 or DMSO (vehicle control). Co-precipitating Bcl-2 was assessed by western blot after elution with excess Flag peptide. (H) Co-immunoprecipitation of wild-type Atg12 or Atg12/D64 mutants with Bcl-2 in HEK293 cells co-transfected as indicated. In B, C, F-H, DAP1-Flag was used instead of Flag-Atg12 as a negative control for co-immunoprecipitation. […]

Atg12-Bcl-2 interaction [3] = molecular target: Atg12-Bcl-2 interaction (Homo sapiens, UniProt P10415); test: Co-immunoprecipitation of Flag-Atg12 with endogenous Bcl-2, competition by Bcl-2 inhibitor; type: binding; settings: Atg12 immunoprecipitates from HEK293 cells incubated with 10 μM ABT-737 vs DMSO; western blot (FIG. 5G)
Source text: (A) Sequence alignment of the BH3-like region of Atg12 with BH3 domains of the Bcl-2 family using ClustalW. […] Species abbreviations: Hs, Homo sapiens; Sc, Saccharomyces cerevisiae; Dm, Drosophila melanogaster. (B) Co-immunoprecipitation of Flag-tagged hAtg12 and Bcl-2 or Mcl-1 from HEK293 cells co-transfected as indicated. (C) Co-immunoprecipitation of Flag-tagged hAtg12 with endogenous Bcl-2 and Mcl-1 from HEK293 cells. (D) Co-immunoprecipitation of endogenous Atg12 and endogenous Mcl-1 in HEK293 and HeLa cells. (E) Co-immunoprecipitation of Flag-tagged Atg12 and endogenous Bcl-2 in HeLa cells treated with STS (3 μM; 4 h). (F) Co-immunoprecipitation of Flag-tagged Atg12 and endogenous Bcl-2 in HEK293 cells co-expressing a control plasmid (CAT) or HA-tagged BAD. (G) Flag-Atg12 was immunoprecipitated from HEK293 cells and incubated with either 10 μM ABT-737 or DMSO (vehicle control). Co-precipitating Bcl-2 was assessed by western blot after elution with excess Flag peptide. (H) Co-immunoprecipitation of wild-type Atg12 or Atg12/D64 mutants with Bcl-2 in HEK293 cells co-transfected as indicated.

Atg12-Mcl-1 interaction = Atg12-Mcl-1 interaction (Homo sapiens, UniProt Q07820); test: Co-immunoprecipitation of Flag-Atg12 with Mcl-1, competition by Bcl-2 inhibitor; type: binding; settings: Atg12 immunoprecipitates from HEK293 cells incubated with 10 μM ABT-737 (FIG. 5G)
Flag-tagged Bcl-2 = molecular target: T1, Flag-tagged Bcl-2 (UniProt P10415 1-239); test: immunoprecipitation of Flag-tagged Bcl-2, western blot for endogenous Atg12
T1 construct: Expressed in HEK293 cells and immunoprecipitated on anti-FLAG beads; also called Flag-Bcl-2; not shown: Flag tag
Description: (§1) For co-immunoprecipitation, HEK293 cells were transiently transfected with the indicated plasmids. Cell pellets were lysed in B buffer (0.4% NP-40, 0.5 mM EDTA, 100 mM KCl, 20 mM Hepes pH 7.6, 20% glycerol) supplemented with protease and phosphatase inhibitors. […] In Example 7, an irrelevant tagged protein (DAP1-Flag) was used as control.
The conjugation of Atg12 to Atg5 is an essential step in the process of autophagy. In order to establish whether Bcl-2 binds to free Atg12, or to the Atg5-Atg12 conjugate, the nature of endogenous Atg12 that is co-immunoprecipitated with Bcl-2 was examined more closely. Upon immunoprecipitation of Flag-tagged Bcl-2 from HEK293 cells, a single band corresponding to the size of unconjugated Atg12 was observed, with no traces at the expected conjugate size (FIG. 7A, left). Furthermore, neither of Atg12's reported conjugation partners, Atg5 or Atg3, could be detected on this blot. […] The interaction between Bcl-2 and free Atg12 is significant, considering that unconjugated Atg12 represents only a small fraction of cellular Atg12, whereas the majority of the protein is conjugated to Atg5, even under basal conditions when autophagy is not induced (FIG. 7A, right).

Bcl-2 G145A = molecular target: T2, Bcl-2 G145A (UniProt P10415 1-239); test: co-immunoprecipitation, transiently transfected HEK293 cells
T2 construct: Co-transfected with Flag-Atg12 in HEK293 cells; also called point mutation in the BH1 domain of Bcl-2
Description: as §1
Therefore experiments were performed to test whether Atg12 was able to interact with members of each subgroup, specifically Bcl-2 and Mcl-1. In transiently transfected HEK293 cells, wild-type Bcl-2 co-immunoprecipitated with Flag-Atg12 (FIG. 5B). […] The specificity of the interaction was further confirmed by reciprocal co-immunoprecipitation, in which Flag-Bcl-2 pulled down ectopically expressed Atg12 (FIG. 6B). In addition, Mcl-1 also co-immunoprecipitated with Flag-Atg12 upon co-expression (FIG. 5B), and Flag-Atg12 interacted with endogenous Bcl-2 and Mcl-1 (FIG. 5C). Thus, Atg12 is able to bind promiscuously to both subgroups of Bcl-2-related proteins.

Chain of Atg12-Mcl-1 interaction (Q07820 whole entry): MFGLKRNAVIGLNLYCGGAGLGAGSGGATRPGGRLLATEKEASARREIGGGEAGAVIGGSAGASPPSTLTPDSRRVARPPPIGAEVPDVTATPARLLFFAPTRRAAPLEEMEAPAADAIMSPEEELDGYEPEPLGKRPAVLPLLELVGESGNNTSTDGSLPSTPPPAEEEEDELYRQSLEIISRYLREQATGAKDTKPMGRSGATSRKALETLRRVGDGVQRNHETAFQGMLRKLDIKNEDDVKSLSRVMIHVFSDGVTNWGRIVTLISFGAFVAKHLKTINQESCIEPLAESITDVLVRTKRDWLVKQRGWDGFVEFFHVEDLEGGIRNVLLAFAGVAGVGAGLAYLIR
Chain of Atg12-Bcl-2 interaction (Homo sapiens, UniProt P10415) (P10415 whole entry, the tested form may be a part): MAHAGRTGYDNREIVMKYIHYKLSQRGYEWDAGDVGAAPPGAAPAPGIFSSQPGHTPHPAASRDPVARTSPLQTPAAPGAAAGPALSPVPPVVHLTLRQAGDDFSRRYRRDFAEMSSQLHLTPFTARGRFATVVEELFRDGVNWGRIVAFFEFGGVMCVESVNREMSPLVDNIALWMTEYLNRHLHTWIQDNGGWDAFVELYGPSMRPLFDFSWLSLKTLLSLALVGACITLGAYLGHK
T1 sequence (P10415 whole entry): as the sequence (P10415 whole entry, the tested form may be a part) above
T2 sequence (P10415 whole entry G145A, the tested form may be a part): as the sequence (P10415 whole entry, the tested form may be a part) above, with G145A counted along it

Molecule: recombinant p38 purified from bacteria
- in-vitro kinase assay (33P-ATP); phospho-mapping by mass spectrometry [1]: p38 phosphorylates Atg12 in an in-vitro kinase assay; the site of phosphorylation was Thr65 in Atg12

Molecule: CN[C@@H]1C[C@H]2O[C@@](C)([C@@H]1OC)n1c3ccccc3c3c4c(c5c6ccccc6n2c5c31)C(=O)NC4 [STS, staurosporine]
- Bax activation (Bax): activation of Bax
- binding of Flag-Atg12 to endogenous Bcl-2 (Atg12-Bcl-2 interaction [2]): increased

Molecule: CN(C)CC[C@H](CSc1ccccc1)Nc1ccc(S(=O)(=O)NC(=O)c2ccc(N3CCN(Cc4ccccc4-c4ccc(Cl)cc4)CC3)cc2)cc1[N+](=O)[O-] [ABT-737]
- interaction between Flag-Atg12 and endogenous Bcl-2 (Atg12-Bcl-2 interaction [3]): disrupted
- binding of Atg12 to Mcl-1 (Atg12-Mcl-1 interaction): not affected

Results, then the molecule that gave them:

- binding result (Flag-tagged Bcl-2): binds
B1: Atg12 (human; untagged, endogenous, or tag not stated) (other)
chain: MAEEPQSVLQLPTSIAAGGEGLTDVSPETTTPEPPSSAAVSPGTEEPAGDTKKKIDILLKAVGDTPIMKTKKWAVERTRTIQGLIDFIKKFLKLVASEQLFIYVNQSFAPSPDQEVGTLYECFGSDGKLVLHYCKSQAWG
notes: also called hAtg12; endogenous Atg12

- binding result (Bcl-2 G145A): no binding
B2: Flag-tagged human Atg12 (wild type) (other)
chain: B1 chain
notes: Expressed from pcDNA3 in HEK293 or HeLa cells and pulled down on anti-FLAG M2 beads; Also used here for the recombinant Atg12 made in E. coli and purified on FLAG-agarose (kinase assay); also called Flag-Atg12; Flag-tagged hAtg12; not shown: Flag tag

Source: US20140155330A1, “Compositions And Methods For Modulating Apoptosis” (Yeda Research and Development Co. Ltd., priority 2011, published 2014)
